Measured values: article PMC7804859, “A metabolically stable apelin-17 analog decreases AVP-induced antidiuresis and improves hyponatremia” (Nature Communications, 2021)
“And” between values parts separate entries of the source, which are not always exact repeats. Identical values can stand only once.

Key:
[1] = molecular target: anti-K17F serum; assay: Inhibition of [125I]-pE13F binding to anti-K17F serum (apelin RIA, cross-reactivity); parameters: species or system rabbit; details: read-out: IC50, recognition by antibody directed against K17F, antiserum 1/4500
Protocol: The columns were then treated as described in
Samples (0.1ml) w ere mixed with 125I-
212 used this radioligand instead of [Glp65, Nle75, Tyr77] [125I]-apelin13 since the substitution of
214 derivatives as described previously by 3,4.
216 incubated for 10 min at room temperature.
This antiserum identified the apelin present in the
Most of the apelin in human plasma was […]

[2] = system: phosphorylated AQP-2 in mpkCCD cells; assay: dDAVP-induced phosphorylation of AQP-2 in mpkCCD cells (immunofluorescence); type: cell-based, mouse; details: 10 µmol/l compound with 10 nmol/l dDAVP, 1 h
Protocol: mpkCCD cells were seeded in 12 mm Transwell filters of 0.4 μm pore size at a density of 160,000 cells/cm^2 and were grown for 5 days. Twenty-four hours before the experiment, cells were starved with depletion media (1:1 (vol/vol) Ham’s F12:DMEM medium). […] The cell culture medium was removed and cells were fixed with 4% formaldehyde in 1× PBS for 10 min at 4 °C, and permeabilized with 0.5% PBS Triton X-100 for 5 min at 20 °C. Then, inserts were incubated in 5% PBS-BSA for 60 min at 20 °C to block non-specific protein binding. Inserts were subjected to immunostaining with a rabbit anti-AQP-2-pS269 antibody (dilution, 1/200, Phospho Solution, Cliniscience, France) and a mouse monoclonal anti-occludin antibody (dilution, 1/200, Santa Cruz, Cliniscience, France) for 16 h at 4 °C. Inserts were then incubated with goat anti-rabbit Alexa Fluor Plus 647 or goat anti-mouse Alexa Fluor plus 488 secondary antibodies (dilution, 1/500, Invitrogen) for 60 min at 20 °C. […] Slides were analyzed in the x–y and x–z axes under a ×63/1.4 Oil WD: 0.17 mm objective with a Zeiss Axioobserver Z1 inverted spinning-disk microscope equipped with a camera sCMOS Hamamatsu 2048 × 2048/pixel size: 6.45 × 6.45 µm^2 and the lasers (405 nm; 100 mW, 491 nm; 150 mW and 642 nm; 100 mW). […]

[3] = molecular target: T1, human V2-R (Homo sapiens, UniProt P30518); assay: cAMP production in HEK-293 T cells expressing the human V2-R (HTRF); type: cell-based; details: HEK-293 T cells, human V2-R
T1 construct: host or cells: HEK-293T cells, transient transfection
T1 sequence (P30518 whole entry): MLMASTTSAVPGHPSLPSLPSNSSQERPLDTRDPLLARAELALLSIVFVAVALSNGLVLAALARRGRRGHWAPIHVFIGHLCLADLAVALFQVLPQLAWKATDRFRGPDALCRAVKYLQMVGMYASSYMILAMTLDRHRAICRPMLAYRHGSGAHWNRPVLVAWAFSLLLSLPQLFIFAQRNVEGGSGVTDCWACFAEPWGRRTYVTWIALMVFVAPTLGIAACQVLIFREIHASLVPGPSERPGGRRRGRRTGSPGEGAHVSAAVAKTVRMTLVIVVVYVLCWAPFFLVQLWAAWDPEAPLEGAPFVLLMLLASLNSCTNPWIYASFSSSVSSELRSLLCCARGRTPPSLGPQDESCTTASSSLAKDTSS
Protocol: 152 Supplementary Methods
154 We quantified cAMP production with the cAMP dynamic 2 assay kit (Cisbio Bioassays,
155 Codolet, France), which is based on homogeneous time-resolved fluorescence (HTRF)
156 technology, as previously described 1. […]
For cells expressing the V2-R, HEK-
160 293T cells were transiently transfected with the human V2-R (cDNA Resource Center), after
161 48h, 4000 cells/well were added to white 384-well optiplates and stimulated either with 5
Cells were then lysed, and
165 cAMP levels were determined in accordance with the kit manufacturer’s instructions.
166 Stimulation was performed in stimulation buffer-IBMX (SBI) (Hank’s balanced salt solution
167 (HBSS-Life Technology), 5 mmol/l Hepes, 0.1% BSA stabilizer (Perkin Elmer), 1 mmol/l
168 isobutylmethylxanthine (IBMX, Sigma Aldrich, pH 7.4)). […]

[4] = system: normonatremic Sprague-Dawley rats; assay: Blood and urine chemistry after 4 days of s.c. administration in rats; type: in vivo, rat; parameters: Plasma glucose: unit not given beside the values; Blood urea nitrogen / 24h Urine glucose: unit not given here
Protocol: Fractional excretion of water (in %) was calculated using the following formula: (plasma creatinine/urine creatinine) × 100. Fractional excretion of sodium (in %) was calculated using the following formula: (plasma creatinine × urine sodium/urine creatinine × plasma sodium) × 100. Blood and urine creatinine, urea nitrogen, and glucose levels were determined using an AU5800 Beckman Coulter chemistry analyzer (Beckman Coulter, Villepinte, France).

CSCC[C@H](NC(=O)[C@@H]1CCCN1C(=O)CNC(=O)[C@H](CCCCN)NC(=O)[C@H](Cc1c[nH]cn1)NC(=O)[C@H](CO)NC(=O)[C@H](CC(C)C)NC(=O)[C@H](CCCNC(=N)N)NC(=O)[C@@H]1CCCN1C(=O)[C@H](CCCNC(=N)N)NC(=O)[C@H](CCC(N)=O)NC(=O)[C@H](CCCNC(=N)N)NC(=O)[C@H](CCCNC(=N)N)NC(=O)[C@H](Cc1ccccc1)NC(=O)[C@H](CCCCN)NC(=O)CCC(F)(F)C(F)(F)C(F)(F)C(F)(F)C(F)(F)C(F)(F)C(F)(F)C(F)(F)F)C(=O)N1CCC[C@H]1C(=O)N[C@@H](Cc1ccccc1)C(=O)O [LIT01-196]
IC50 [1]: 0.56 ± 0.04 nM
phosphorylation of AQP-2 (phospho-AQP-2 immunolabelling) [2]: decrease in the phosphorylation of AQP-2
effect on cAMP production induced by 1 µmol/l AVP ([3]; 1 µmol/l compound, 30 min 37 °C): did not modify
effect on basal cAMP production ([3]; compound alone at 1 µmol/l): did not modify
Plasma creatinine ([4]; 900 nmol/kg SC, individual animals (Fig. S5G source data)): 21 and 24 and 22
Blood urea nitrogen ([4]; 900 nmol/kg SC, individual animals (Fig. S5H source data)): 7 and 8 and 5.6 and 6.8 and 6.1
Plasma potassium ([4]; 900 nmol/kg SC, individual animals (Fig. S5J source data)): 4.54 and 4.76 and 5.03 and 4.26 and 4.35
Plasma glucose ([4]; 900 nmol/kg SC, individual animals (Fig. S5K source data)): 8.1 and 9.1 and 7.4 and 8 and 7.6
24h Urine glucose ([4]; 900 nmol/kg SC, individual animals (Fig. S5L source data)): 0.04364 and 0.0331 and 0.0123 and 0
blood creatinine, urea nitrogen, sodium, and potassium levels ([4]; 900 nmol/kg s.c. for 4 days, rats): not changed
plasma or urine glucose levels ([4]; repeated 900 nmol/kg s.c., normonatremic rats): not associated with a change
